“Also recorded” adds a separate entry of the source.
System: Pseudomonas aeruginosa ATCC 15442
Experiment: Anti-Bacterial Test Method: log reduction of bacterial colonies after 3 days exposure in water
Format: cell-based
Procedure: Materials were dissolved in ethanol (or deionized water in the case of water soluble preservatives) to a concentration of 100 mg/ml. 30 μl of this solution added to 3 ml deionized water gave a final concentration of 0.1%. (If necessary, solutions are sonicated for 15 minutes and allowed to equilibrate back to ambient temperature.) Bacterial cultures were added to this solution, mixed on a vortex mixer and a dock started. After 3 days, an aliquot is sampled and added to a D/E (Dey/Engley) neutralization broth (marketed by Becton and Dickinson Cγ) and plated onto solid media. Bacterial colonies are counted after overnight incubation. The selected indicator microorganism was Pseudomonas aeruginosa ATCC 15442.
All results are quoted as the reduction in activity expressed as a logarithm to the base 10 measured after 3 days incubation and compared with the inocculum unless otherwise noted.
All percentages are quoted as weight per unit volume (e.g. g/ml) unless indicated otherwise.

OCc1ccccc1 [Benzyl alcohol]
Log Reduction after 3 days (0.025% Benzyl alcohol alone): 0.2 log

Cl/C=C\C[N+]12CN3CN(CN(C3)C1)C2.[Cl-] [Dowicil 200, cis-1-3-chloroallyl-3,5,7-triaza-1-azoniaadamantane chloride]
log reduction, compared with the ethanol solvent control (0.05% Dowicil 200 alone): 1.3 log | log reduction after 3 days vs Inocculum (0.05% Dowicil (line of Test Example 14 without fragrance)): 0.7 log

CCOC(=O)c1ccccc1C(=O)OCC [diethyl phthalate]
effect of addition of diethyl phthalate on antibacterial / preservative efficacy (0.1% or 0.2% diethyl phthalate added to fragrance ingredient + preservative mixture): detrimental to antibacterial efficacy; also recorded: detrimental to preservative efficacy

OCCOc1ccccc1 [phenoxyethanol, 2-Phenoxyethanol]
log reduction, compared with the ethanol solvent control, after 3 days (0.1% phenoxyethanol alone): 0.4 log

— US20080234173A1, “PRESERVATIVE COMPOSITIONS” (TAKASAGO INTERNATIONAL CORPORATION, priority 2007, published 2008)
